Test results as given in PubChem BioAssay AID248 (DTP/NCI, 2004).
Several values for one entry are separate records, joined by “and”; a condition that tells them apart may be missing. Equal values may be shown once. Inconclusive results and toxic doses are left out. No stated cut-off is given here; in the data, active means T/C of 150% or more; inactive means T/C below 125%.

Tested on: L1210 leukemia ip in BDF1 mice, survival T/C
Test: NCI In Vivo Anticancer Drug Screen. Data for tumor model L1210 Leukemia (intraperitoneal) in B6D2F1 (BDF1) mice
Conditions: endpoint: mean survival time, higher = longer survival
Method in brief: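 Each compound was tested against a transplantable tumor grown in mice. The endpoint was survival, with treated animals benchmarked against vehicle controls as a simple ratio.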

[1] = dose: 100.0 mg/kg/injection, schedule: Q01DX001 (ip), vehicle: saline
[2] = dose: 200.0 mg/kg/injection, schedule: Q01DX001 (ip), vehicle: saline
[3] = dose: 400.0 mg/kg/injection, schedule: Q01DX001 (ip), vehicle: saline
[4] = dose: 50.0 mg/kg/injection, schedule: Q01DX001 (ip), vehicle: saline
[5] = dose: 100.0 mg/kg/injection, schedule: Q01DX009 (ip), vehicle: saline with Tween-80
[6] = dose: 100.0 mg/kg/injection, schedule: Q04DX003 (ip), vehicle: saline
[7] = dose: 100.0 mg/kg/injection, schedule: Q01DX009 (ip), vehicle: saline
[8] = dose: 200.0 mg/kg/injection, schedule: Q01DX009 (ip), vehicle: saline
[9] = dose: 100.0 mg/kg/injection, schedule: Q04DX003 (ip), vehicle: saline with Tween-80
[10] = dose: 200.0 mg/kg/injection, schedule: Q04DX003 (ip), vehicle: saline with Tween-80
[11] = dose: 400.0 mg/kg/injection, schedule: Q04DX003 (ip), vehicle: saline with Tween-80
[12] = dose: 100.0 mg/kg/injection, schedule: Q01DX009 (ip), vehicle: Klucel (hydroxypropylcellulose) (HPC)
[13] = dose: 200.0 mg/kg/injection, schedule: Q01DX009 (ip), vehicle: Klucel (hydroxypropylcellulose) (HPC)
[14] = dose: 400.0 mg/kg/injection, schedule: Q01DX009 (ip), vehicle: Klucel (hydroxypropylcellulose) (HPC)
[15] = dose: 100.0 mg/kg/injection, schedule: Q04DX002 (ip), vehicle: Klucel (hydroxypropylcellulose) (HPC)
[16] = dose: 200.0 mg/kg/injection, schedule: Q04DX002 (ip), vehicle: Klucel (hydroxypropylcellulose) (HPC)
[17] = dose: 400.0 mg/kg/injection, schedule: Q04DX002 (ip), vehicle: Klucel (hydroxypropylcellulose) (HPC)

Measured: T/C

CCC[CH2][Hg][O]C(C)=O
inactive: dose: 3.13 mg/kg/injection, schedule: Q01DX009 (ip), vehicle: saline sonified 89 % of control | dose: 6.25 mg/kg/injection, schedule: Q01DX009 (ip), vehicle: saline sonified 89 % of control | dose: 6.25 mg/kg/injection, schedule: Q04DX003 (ip), vehicle: Klucel (hydroxypropylcellulose) (HPC) 100 % of control | dose: 12.5 mg/kg/injection, schedule: Q01DX009 (ip), vehicle: saline sonified 87 % of control | dose: 12.5 mg/kg/injection, schedule: Q04DX003 (ip), vehicle: Klucel (hydroxypropylcellulose) (HPC) 92 % of control

CC(C)=CCC(C)c1ccncc1 (centres undefined)
inactive: [1] 102 % of control | [2] 97 % of control | [3] 102 % of control

O=C(CCl)Nc1ccc(CCN2C(=O)CC(c3ccccc3)C2=O)cc1 (centres undefined)
inactive: dose: 100.0 mg/kg/injection, schedule: Q04DX002 (ip), vehicle: saline with Tween-80 93 % of control | dose: 200.0 mg/kg/injection, schedule: Q04DX002 (ip), vehicle: saline with Tween-80 97 % of control | dose: 400.0 mg/kg/injection, schedule: Q04DX002 (ip), vehicle: saline with Tween-80 89 % of control

CSc1nc(C)c(C)c(=O)[nH]1
inactive: [1] 104 % of control | [2] 116 % of control | [3] 124 % of control

C=CC1=CC(=O)OC1=O
inactive: dose: 10.0 mg/kg/injection, schedule: Q01DX001 (ip), vehicle: saline 88 % of control

COc1cc(/C=N/Nc2nnc(N/N=C/c3cc(I)c(O)c(OC)c3)c3ccccc23)cc(I)c1O
inactive: [4] 95 % of control | [1] 95 % of control | [2] 101 % of control | [3] 97 % of control

O=[N+]([O-])c1[nH]c(Cl)nc1Cl
inactive: dose: 25.0 mg/kg/injection, schedule: Q01DX001 (ip), vehicle: saline with Tween-80 97 % of control | dose: 50.0 mg/kg/injection, schedule: Q01DX001 (ip), vehicle: saline with Tween-80 103 % of control

Cl/C=C(\Cl)CCl
inactive: [5] 100 % of control | [6] 97 % of control | dose: 200.0 mg/kg/injection, schedule: Q04DX003 (ip), vehicle: saline 102 % of control | dose: 400.0 mg/kg/injection, schedule: Q04DX003 (ip), vehicle: saline 105 % of control

Oc1ccc(CNCCNCCNCc2ccc(O)cc2)cc1
inactive: dose: 12.5 mg/kg/injection, schedule: Q01DX009 (ip), vehicle: saline 87 % of control | dose: 25.0 mg/kg/injection, schedule: Q01DX009 (ip), vehicle: saline 102 % of control | dose: 25.0 mg/kg/injection, schedule: Q04DX003 (ip), vehicle: saline 110 % of control | dose: 50.0 mg/kg/injection, schedule: Q01DX009 (ip), vehicle: saline 93 % of control | dose: 50.0 mg/kg/injection, schedule: Q04DX003 (ip), vehicle: saline 95 % of control | [7] 102 % of control and 92 % of control | [6] 98 % of control and 92 % of control | [8] 105 % of control

Cc1cc(Cl)c(Cl)cc1NC(=O)C(Br)C(Br)C(=O)O (centres undefined)
inactive: [5] 97 % of control | dose: 200.0 mg/kg/injection, schedule: Q01DX009 (ip), vehicle: saline with Tween-80 96 % of control

N#Cc1ccccc1CCl
inactive: dose: 50.0 mg/kg/injection, schedule: Q01DX001 (ip), vehicle: carboxymethylcellulose (CMC) 103 % of control | dose: 100.0 mg/kg/injection, schedule: Q01DX001 (ip), vehicle: carboxymethylcellulose (CMC) 97 % of control | dose: 200.0 mg/kg/injection, schedule: Q01DX001 (ip), vehicle: carboxymethylcellulose (CMC) 103 % of control | dose: 400.0 mg/kg/injection, schedule: Q01DX001 (ip), vehicle: carboxymethylcellulose (CMC) 107 % of control

CCOC(=O)CCC(N)C(=O)O (centres undefined)
inactive: dose: 100.0 mg/kg/injection, schedule: Q04DX002 (ip), vehicle: saline 110 % of control | dose: 200.0 mg/kg/injection, schedule: Q04DX002 (ip), vehicle: saline 106 % of control | dose: 400.0 mg/kg/injection, schedule: Q04DX002 (ip), vehicle: saline 102 % of control

C=C(C)C(=O)OCC1COc2c(cc(O)c(C)c2C)C1 (centres undefined)
inactive: [9] 107 % of control | [10] 98 % of control | [11] 98 % of control

O=C(NCCF)NC1CCCCCCCCCCC1
inactive: dose: 9.5 mg/kg/injection, schedule: Q01DX001 (ip), vehicle: other 101 % of control | dose: 19.0 mg/kg/injection, schedule: Q01DX001 (ip), vehicle: other 92 % of control | dose: 38.0 mg/kg/injection, schedule: Q01DX001 (ip), vehicle: other 121 % of control

COc1ccc(/C=C/C(=O)c2ccccc2)cc1Br
inactive: [9] 100 % of control | [10] 96 % of control | [11] 96 % of control

O=C(CCl)c1ccc([N+](=O)[O-])o1
inactive: dose: 1.56 mg/kg/injection, schedule: Q01DX001 (ip), vehicle: Klucel (hydroxypropylcellulose) (HPC) 98 % of control | dose: 3.12 mg/kg/injection, schedule: Q01DX001 (ip), vehicle: Klucel (hydroxypropylcellulose) (HPC) 95 % of control | dose: 6.25 mg/kg/injection, schedule: Q01DX001 (ip), vehicle: Klucel (hydroxypropylcellulose) (HPC) 96 % of control

CC[N+](C)(CC)CCSC(=O)Nc1ccc(Cc2ccc(NC(=O)SCC[N+](C)(CC)CC)cc2)cc1
inactive: dose: 10.0 mg/kg/injection, schedule: Q04DX003 (ip), vehicle: Klucel (hydroxypropylcellulose) (HPC) 96 % of control | dose: 12.5 mg/kg/injection, schedule: Q01DX009 (ip), vehicle: Klucel (hydroxypropylcellulose) (HPC) 103 % of control | dose: 20.0 mg/kg/injection, schedule: Q04DX003 (ip), vehicle: Klucel (hydroxypropylcellulose) (HPC) 96 % of control

CCOC1=C(C#N)CC2(CC1)c1ccccc1-c1ccccc12
inactive: [12] 96 % of control | [13] 95 % of control | [14] 95 % of control

Cc1ccc(C)c(NC(=O)N(CCO)C2CCCCC2)c1
inactive: [12] 98 % of control | dose: 100.0 mg/kg/injection, schedule: Q04DX003 (ip), vehicle: Klucel (hydroxypropylcellulose) (HPC) 104 % of control | [13] 95 % of control | dose: 200.0 mg/kg/injection, schedule: Q04DX003 (ip), vehicle: Klucel (hydroxypropylcellulose) (HPC) 103 % of control | [14] 90 % of control | dose: 400.0 mg/kg/injection, schedule: Q04DX003 (ip), vehicle: Klucel (hydroxypropylcellulose) (HPC) 95 % of control

O=C(O)C(CCc1ccccc1)N1CCOCC1 (centres undefined)
inactive: [7] 100 % of control | [8] 101 % of control | dose: 400.0 mg/kg/injection, schedule: Q01DX009 (ip), vehicle: saline 103 % of control

Cn1cnc2cc(N=Cc3ccc(N(CCCl)CCCl)cc3)ccc21
inactive: [15] 106 % of control | [16] 106 % of control | [17] 109 % of control

Cn1cccc1/C=N/O
inactive: [15] 98 % of control | [16] 98 % of control | [17] 117 % of control

O=C(Cl)C1C(c2ccccc2)C1c1ccccc1 (centres undefined)
inactive: [9] 106 % of control

CN(C)/N=N\c1nc[nH]c1C(=O)NC1CCCCC1
inactive: dose: 10.0 mg/kg/injection, schedule: Q01DX001 (ip), vehicle: saline with Tween-80 100 % of control | dose: 20.0 mg/kg/injection, schedule: Q01DX001 (ip), vehicle: saline with Tween-80 94 % of control | dose: 40.0 mg/kg/injection, schedule: Q01DX001 (ip), vehicle: saline with Tween-80 96 % of control | dose: 75.0 mg/kg/injection, schedule: Q01DX009 (ip), vehicle: saline with Tween-80 98 % of control | dose: 150.0 mg/kg/injection, schedule: Q01DX009 (ip), vehicle: saline with Tween-80 109 % of control | dose: 300.0 mg/kg/injection, schedule: Q01DX009 (ip), vehicle: saline with Tween-80 101 % of control

C[S+]1CCCCC1
inactive: [4] 96 % of control | [1] 100 % of control
